Where two headings read alike, the source gives them in different places.
How the values were obtained:
[1] = tested on: HIV-1 RF virus in CEM-SS cells; assay: HIV-1 cell protection assay (XTT dye reduction); type: cell-based
Experimental: Six days later, 50 μl of XTT solution (1 mg/ml XTT tetrazolium and 20 nM phenazine methosulfate) were added to the wells and the plates were reincubated for four hours. Viability, as determined by the amount of XTT formazan produced, was quantified spectrophotometrically by absorbance at 450 nm.
Data from CPE assays were expressed as the percent of formazan produced in compound-treated cells compared to formazan produced in wells of uninfected, compound-free cells. […] The 50% cytotoxicity concentration (CC50) was calculated as the concentration of compound that decreased the percentage of formazan produced in uninfected, compound-treated cells to 50% of that produced in uninfected, compound-free cells. The therapeutic index was calculated by dividing the cytotoxicity (CC50) by the antiviral activity (EC50).

[2] = molecular target: T1, Full-length wild type HIV-1 integrase (SF1) (Human immunodeficiency virus type 1 group M subtype B, UniProt P04585); assay: Integrase strand-transfer scintillation proximity assay; type: biochemical; settings: strand-transfer SPA, 246 nM integrase, 50 nM host DNA, 37° C., 50 min; read-out: IC50
T1 construct: made in house; host or cells: E. coli BL21 (DE3)
From the text: The annealed product represents preprocessed viral ds-DNA derived from the LTR U5 sequence of the viral genome. A ds-DNA control to test for non-specific interactions was made using a 3′ di-deoxy derivative of oligonucleotide #1 annealed to oligonucleotide #2. The CA overhang at the 5′ end of the non-biotinylated strand of the ds-DNA was created artificially by using a complimentary DNA oligonucleotide shortened by 2 base pairs. This configuration eliminates the requisite 3′ processing step of the integrase enzyme prior to the strand-transfer mechanism.
The annealed product had overhanging 3′ ends of poly(dA). […] The radiolabeled product was purified using a NENSORB cartridge and stored in stabilized aqueous solution (PerkinElmer).
Reagents: Streptavidin-coated polyvinyltoluene (PVT) SPA beads were purchased from Amersham Biosciences (Piscataway, N.J.). Cesium chloride was purchased from Shelton Scientific, Inc. (Shelton, Conn.). White, polystyrene, flat-bottom, non-binding surface, 96-well plates were purchased from Corning. All other buffer components were purchased from Sigma (St. Louis, Mo.) unless otherwise indicated.
Enzyme Construction: Full-length wild type HIV-1 integrase (SF1) sequence (amino acids 1-289) was constructed in a pET24a vector (Novagen, Madison, Wis.).
Enzyme Purification: Full length wild-type HIV Integrase was expressed in E. coli BL21 (DE3) cells and induced with 1 mM isopropyl-1 thio-β-D-galactopyranoside (IPTG) when cells reached an optical density between 0.8-1.0 at 600 nm. Cells were lysed by microfluidation in 50 mM HEPES pH 7.0, 75 mM NaCl, 5 mM DTT, 1 mM 4-(2-Aminoethyl)benzenesulfonylfluoride HCl (AEBSF). Lysate was then centrifuged 20 minutes at 11 k rpm in GSA rotor in Sorvall RC-5B at 4° C. Supernant was discarded and pellet resuspended in 50 mM HEPES pH 7.0, 750 mM NaCl, 5 mM DTT, 1 mM AEBSF and homogenized in a 40 mL Dounce homogenizer for 20 minutes on ice. Homogenate was then centrifuged 20 minutes at 11 k rpm in SS34 rotor in Sorvall RC-5B at 4° C. Supernant was discarded and pellet resuspended in 50 mM HEPES pH 7.0, 750 mM NaCl, 25 mM CHAPS, 5 mM DTT, 1 mM AEBSF. Preparation was then centrifuged 20 minutes at 11 k rpm in SS34 rotor in Sorvall RC-5B at 4° C.
Supernant was then diluted 1:1 with 50 mM HEPES pH 7.0, 25 mM CHAPS, 1 mM DTT, 1 mM AEBSF and loaded onto a Q-Sepharose column pre-equilibrated with 50 mM HEPES, pH 7.0, 375 mM NaCl, 25 mM CHAPS, 1 mM DTT, 1 mM AEBSF. The flow through peak was collected and NaCl diluted to 0.1 M with 50 mM HEPES pH 7.0, 25 mM CHAPS, 1 mM DTT, 0.5 mM AEBSF and loaded onto a SP-Sepharose column pre-equilibrated with 50 mM HEPES pH 7.0, 100 mM NaCl, 25 mM CHAPS, 1 mM DTT, 0.5 mM AEBSF. After washing the column with the equilibration buffer, a 100 to 400 mM NaCl gradient was run. The eluted integrase was concentrated and run on a S-300 gel diffusion column using 50 mM HEPES pH 7.0, 500 mM NaCl, 25 mM CHAPS, 1 mM DTT, 0.5 mM AEBSF. […] All columns were run in a 4° C. cold room.
Viral DNA Bead Preparation: Streptavidin-coated SPA beads were suspended to 20 mg/mL in 25 mM 3-morpholinopropanesulfonic acid (MOPS) (pH 7.2) and 1.0% NaN3. Biotinylated viral DNA was bound to the hydrated SPA beads in a batch process by combining […] of ds-DNA to 1 mg of suspended SPA beads (10 μL of 50 μM viral DNA to 1 mL of 20 mg/mL SPA beads). The mixture was incubated at 22° C. for a minimum of 20 min. with occasional mixing followed by centrifugation at 2500 rpm for 10 min.

[3] = Human immunodeficiency virus 1, 144 h, RF strain of HIV-1, CEM-SS cells, XTT read-out after six days, read-out: EC50
[4] = Human immunodeficiency virus 1, CEM-SS, 144 h

SMILES | EC50 [1, 3] | IC50 [2] | EC50 [1, 4]
CCCCOCc1cn(Cc2ccc(F)cc2)c2cnc3c(c12)CCN(O)C3=O [Example 60, 1-(butoxymethyl)-3-(4-fluorobenzyl)-7-hydroxy-3,7,8,9-tetrahydro-6H-pyrrolo[2,3-c]-1,7-naphthyridin-6-one] | 0.00039 µM | 0.012 µM | 
CCn1ccnc1CN(C)Cc1cn(Cc2ccc(F)cc2)c2cnc3c(c12)CCN(O)C3=O [Example 70, 1-{[[(1-ethyl-1H-imidazol-2-yl)methyl](methyl)amino]methyl}-3-(4-fluorobenzyl)-7-hydroxy-3,7,8,9-tetrahydro-6H-pyrrolo[2 3-c]-1,7-naphthyridin-6-one] | 0.043 µM | 0.022 µM | 
Cc1ncccc1COCc1cn(Cc2ccc(F)cc2)c2cnc3c(c12)CCN(O)C3=O [Example 64, 3-(4-fluorobenzyl)-7-hydroxy-1-{[(2-methylpyridin-3-yl)methoxy]methyl}-3,7,8,9-tetrahydro-6H-pyrrolo[2,3-c]-1,7-naphthyridin-6-one] | 0.001 µM | 0.009 µM | 
CN(CCCc1cn(Cc2ccc(F)cc2)c2cnc3c(c12)CCN(O)C3=O)CC1CCOCC1 [Example 105, 3-(4-fluorobenzyl)-7-hydroxy-1-{3-[methyl(tetrahydro-2H-pyran-4-ylmethyl)amino]propyl}-3,7,8,9-tetrahydro-6H-pyrrolo[2,3-c]-1,7-naphthyridin-6-one] | 0.016 µM | 0.024 µM | 
O=C1c2ncc3c(c(Br)cn3Cc3ccc(F)cc3)c2CCN1O [Example 61, 1-bromo-3-(4-fluorobenzyl)-7-hydroxy-3,7,8,9-tetrahydro-6H-pyrrolo[2,3-c]-1,7-naphthyridin-6-one] | 0.00032 µM | 0.017 µM | 
CN(CCCc1cn(Cc2ccc(F)cc2)c2cnc3c(c12)CCN(O)C3=O)Cc1ccccn1 [Example 122, 3-(4-fluorobenzyl)-7-hydroxy-1-{3-[methyl(pyridin-2-ylmethyl)amino]propyl}-3,7,8,9-tetrahydro-6H-pyrrolo[2,3-c]-1,7-naphthyridin-6-one] | 0.005 µM | 0.026 µM | 
Cc1cc2c(ncc3c2c(CN2CCN(C)C(=O)C2)cn3Cc2ccc(F)cc2)c(=O)n1O [Example 96, 3-(4-fluorobenzyl)-7-hydroxy-8-methyl-1-[(4-methyl-3-oxopiperazin-1-yl)methyl]-3,7-dihydro-6H-pyrrolo[2,3-c]-1,7-naphthyridin-6-one] | 0.005 µM | 0.01 µM | 
O=C1c2ncc3c(c(CNC4CCOCC4)cn3Cc3ccc(F)cc3)c2CCN1O [Example 69, 3-(4-fluorobenzyl)-7-hydroxy-1-[(tetrahydro-2H-pyran-4-ylamino)methyl]-3,7,8,9-tetrahydro-6H-pyrrolo[2,3-c]-1,7-naphthyridin-6-one] | 0.027 µM | 0.02 µM | 
O=C1c2ncc3c(c(CN4CCCCC4)cn3Cc3ccc(F)cc3)c2CCN1O [Example 38, 3-(4-fluorobenzyl)-7-hydroxy-1-(piperidin-1-ylmethyl)-3,7,8,9-tetrahydro-6H-pyrrolo[2,3-c]-1,7-naphthyridin-6-one] |  |  | 0.0054 µM
C[C@H](O)CNCc1cn(Cc2ccc(F)cc2)c2cnc3c(=O)n(O)ccc3c12 [Example 2, 3-(4-fluorobenzyl)-7-hydroxy-1-({[(2S)-2-hydroxypropyl]amino}methyl)-3,7-dihydro-6H-pyrrolo[2,3-c]-1,7-naphthyridin-6-one] | 0.0609 µM |  | 
COCCN(C)Cc1cn(Cc2ccc(F)cc2)c2cnc3c(c12)CCN(O)C3=O [Example 77, 3-(4-fluorobenzyl)-7-hydroxy-1-{[(2-methoxyethyl)(methyl)amino]methyl}-3,7,8,9-tetrahydro-6H-pyrrolo[2,3-c]-1,7-naphthyridin-6-one] |  |  | 0.002 µM
O=C1c2ncc3[nH]ccc3c2CCN1O [Example 83, 7-hydroxy-3,7,8,9-tetrahydro-6H-pyrrolo[2,3-c]-1,7-naphthyridin-6-one] | 0.014 µM |  | 
CC(CN(C)C)NCc1cn(Cc2ccc(F)cc2)c2cnc3c(=O)n(O)ccc3c12 (centres unmarked) [Example 4, 1-({[2-(dimethylamino)-1-methylethyl]amino}methyl)-3-(4-fluorobenzyl)-7-hydroxy-3,7-dihydro-6H-pyrrolo[2,3-c]-1,7-naphthyridin-6-one] | 0.051 µM |  | 
N#Cc1cc(F)ccc1Cn1ccc2c3c(ncc21)C(=O)N(O)CC3 [Example 91, 5-fluoro-2-[(7-hydroxy-6-oxo-6,7,8,9-tetrahydro-3H-pyrrolo[2,3-c]-1,7-naphthyridin-3-yl)methyl]benzonitrile] |  |  | 0.002 µM
O=C1c2ncc3c(c(S(=O)(=O)N4CCCC4)cn3Cc3ccc(F)cc3)c2CCN1O [Example 13, 3-(4-fluorobenzyl)-7-hydroxyl(pyrrolidin-1-ylsulfonyl)-3,7,8,9-tetrahydro-6H-pyrrolo[2 3-c]-1,7-naphthyridin-6-one] |  |  | 0.003 µM
CCN(C)Cc1cn(Cc2ccc(F)cc2)c2cnc3c(=O)n(O)ccc3c12 [Example 3, 1-{[ethyl(methyl)amino]methyl}-3-(4-fluorobenzyl)-7-hydroxy-3,7-dihydro-6H-pyrrolo[2,3-c]-1,7-naphthyridin-6-one] | 0.0025 µM |  | 
CN(C)Cc1cn(Cc2ccc(F)cc2)c2cnc3c(c12)CCN(O)C3=O [Example 12, 1-[(dimethylamino)methyl]-3-(4-fluorobenzyl)-7-hydroxy-3,7,8,9-tetrahydro-6H-pyrrolo[2,3-c]-1,7-naphthyridin-6-one] |  |  | 0.013 µM
O=C1c2ncc3c(c(CN4CCC(F)(F)C4)cn3Cc3ccc(F)cc3)c2CCN1O [Example 37, 1-[(3,3-difluoropyrrolidin-1-yl)methyl]-3-(4-fluorobenzyl)-7-hydroxy-3,7,8,9-tetrahydro-6H-pyrrolo[2,3-c]-1,7-naphthyridin-6-one] |  |  | 0.0015 µM
O=c1c2ncc3c(c(CN4CCC(CO)CC4)cn3Cc3ccc(F)cc3)c2ccn1O [Example 5, 3-(4-fluorobenzyl)-7-hydroxy-1-{[4-(hydroxymethyl)piperidin-1-yl]methyl}-3,7-dihydro-6H-pyrrolo[2,3-c]-1,7-naphthyridin-6-one] | 0.012 µM |  | 
CCCCC1Cc2c(ncc3c2ccn3Cc2ccc(F)cc2)C(=O)N1O (centres unmarked) [Example 1, 8-butyl-3-(4-fluorobenzyl)-7-hydroxy-3,7,8,9-tetrahydro-6H-pyrrolo[2,3-c]-1,7-naphthyridin-6-one] | 0.46 µM |  | 
O=c1c2ncc3c(c(CN4CCCC4)cn3Cc3ccc(F)cc3)c2ccn1O [Example 6, 3-(4-fluorobenzyl)-7-hydroxy-1-(pyrrolidin-1-ylmethyl)-3,7-dihydro-6H-pyrrolo[2,3-c]-1,7-naphthyridin-6-one] | 0.0053 µM |  | 

Source: patent US20070099915A1, “INHIBITORS OF THE HIV INTEGRASE ENZYME” (PFIZER INC., priority 2005, published 2007)
